How the values were obtained:
[1] = 4.0 mL PBS + 20 mg binder, mixed 1 h at room temperature; hypothetical results; dihydrate
Procedure: Exemplary stock solutions suitable for phosphate-binding assays include the following: phosphate-binding solution (“PBS”) containing 10 mM KH2PO4, 30 mM Na2CO3, 80 mM NaCl, as described in Rosenbaum et al. Nephrol. Dial. Transplant. 12:961-964 (1997); acetate buffer (“AB”) solution containing 0.1N acetic acid, 0.025N sodium acetate, as described in Lowry & Lopez J. Biol. Chem. 162:421-428 (1946); ammonium molybdate (“AM”) solution containing 1% ammonium molybdate in 0.05N H2SO4, as described in Lowry & Lopez; ascorbic acid (“AA”) solution containing 1% ascorbic acid in H2O, as described in Lowry & Lopez.
In general, the phosphate-binding assays are conducted in 12×75 mm glass tubes. 4.0 mL PBS and 20 mg putative phosphate binder are added to a glass tube and then mixed for 1 h at room temperature. 0.1 mL supernatant is pipetted from this tube to a new test tube. 3.0 mL AB, 0.3 mL AA and 0.3 mL AM solutions are added and O.D. is measured at 700 nm after 10 minutes.
The phosphate binding capacity was calculated as follows (mcg stands for micrograms): ((O.D. of sample×95)/O.D. of standard)×40=(mcg)PO4 left in solution ((3800(mcg)PO4 left)×50)/1000=(mcg)PO4 bound per gram of phosphate binder.
The phosphate binding capacities of samples of magnesium glycinate dihydrate produced by the process of Example 1 are measured. X-ray powder diffraction is conducted on each of the samples to verify that they consist of the polymorph described in Example 2.

[2] = as described in the '012 application, cited from earlier work

Compound	PO4 binding [1]	also measured
O=C1C[NH][Mg]2([OH])([OH])([NH]CC(=O)[O]2)[O]1 [Sample 1, magnesium glycinate dihydrate]	175.0 mg/g	
O=C1C[NH][Mg]2([OH])([OH])([NH]CC(=O)[O]2)[O]1 [Sample 2, magnesium glycinate dihydrate]	177.0 mg/g	
O=C1C[NH][Mg]2([OH])([OH])([NH]CC(=O)[O]2)[O]1 [Sample 3, magnesium glycinate dihydrate]	176.2 mg/g	
O=C1C[NH][Mg]2([OH])([OH])([NH]CC(=O)[O]2)[O]1 [Sample 4, magnesium glycinate dihydrate]	178.1 mg/g	
[Cl-].[Cl-].[Mg+2] [magnesium chloride]		ability to bind phosphate ([2]; formed from magnesium glycinate and stomach acid (HCl)): does not have the ability to bind phosphate in appreciable quantities
magnesium glycinate [magnesium glycinate salt]		ability to bind phosphate per gram ([2]; in vitro phosphate binding assay): at least 50 mg phosphate per gram

— patent publication US9394318B2, “Crystal polymorph of magnesium glycinate dihydrate and process for its preparation” (Cypress Pharmaceutical, Inc., priority 2012, dated 2016)
